# In publication PMC8800111 (The Journal of Biological Chemistry, 2021):
# Key:
# Type in all cases: cell-based
# [1] = molecular target: proteins of U3A human fibrosarcoma cells (4462 proteins detected) (Homo sapiens, UniProt O00232); details: protein PSMD12; U3A cells
# [2] = molecular target: proteins of U3A human fibrosarcoma cells (4462 proteins detected) (Homo sapiens, UniProt O75976); details: protein CPD; soluble abundance after heat, U3A cells
# [3] = molecular target: proteins of U3A human fibrosarcoma cells (4462 proteins detected) (Homo sapiens, UniProt O94880); details: protein PHF14; U3A, 10 μM, 2 h
# Chain of proteins of U3A human fibrosarcoma cells (4462 proteins detected) (Homo sapiens, UniProt O94880) (O94880 whole entry): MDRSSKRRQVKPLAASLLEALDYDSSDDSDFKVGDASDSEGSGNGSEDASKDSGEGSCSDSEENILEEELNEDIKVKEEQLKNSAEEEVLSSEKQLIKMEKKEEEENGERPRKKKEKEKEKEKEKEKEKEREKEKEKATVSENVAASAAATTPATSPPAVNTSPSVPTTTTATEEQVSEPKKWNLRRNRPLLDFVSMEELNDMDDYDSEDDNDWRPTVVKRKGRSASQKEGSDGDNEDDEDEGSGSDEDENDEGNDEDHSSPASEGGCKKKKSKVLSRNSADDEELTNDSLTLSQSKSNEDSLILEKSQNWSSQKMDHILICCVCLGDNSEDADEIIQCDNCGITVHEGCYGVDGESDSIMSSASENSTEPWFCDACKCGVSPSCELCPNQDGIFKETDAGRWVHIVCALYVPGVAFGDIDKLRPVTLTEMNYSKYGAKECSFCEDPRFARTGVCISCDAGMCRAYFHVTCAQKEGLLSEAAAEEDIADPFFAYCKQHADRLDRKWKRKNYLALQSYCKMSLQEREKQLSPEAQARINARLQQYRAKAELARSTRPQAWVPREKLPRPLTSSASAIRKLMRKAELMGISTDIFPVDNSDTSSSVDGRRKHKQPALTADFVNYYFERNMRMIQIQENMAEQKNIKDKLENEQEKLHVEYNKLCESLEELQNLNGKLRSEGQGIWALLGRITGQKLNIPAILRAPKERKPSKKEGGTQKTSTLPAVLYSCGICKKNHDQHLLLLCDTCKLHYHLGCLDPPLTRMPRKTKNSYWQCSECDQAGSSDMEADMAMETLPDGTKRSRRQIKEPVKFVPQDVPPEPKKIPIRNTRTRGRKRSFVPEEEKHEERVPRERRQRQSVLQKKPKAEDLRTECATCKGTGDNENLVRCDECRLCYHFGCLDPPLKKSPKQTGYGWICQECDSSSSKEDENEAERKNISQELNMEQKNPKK
# [4] = molecular target: proteins of U3A human fibrosarcoma cells (4462 proteins detected) (Homo sapiens, UniProt P08582); details: protein MFI2; U3A cells
# [5] = molecular target: proteins of U3A human fibrosarcoma cells (4462 proteins detected) (Homo sapiens, UniProt P20839); details: protein IMPDH1, U3A cells
# [6] = molecular target: proteins of U3A human fibrosarcoma cells (4462 proteins detected) (Homo sapiens, UniProt P29034); details: protein S100A2, U3A cells
# [7] = molecular target: proteins of U3A human fibrosarcoma cells (4462 proteins detected) (Homo sapiens, UniProt P34896); details: protein SHMT1, U3A cells
# [8] = molecular target: proteins of U3A human fibrosarcoma cells (4462 proteins detected) (Homo sapiens, UniProt P38432); details: protein COIL; soluble abundance after heat, U3A cells
# [9] = molecular target: proteins of U3A human fibrosarcoma cells (4462 proteins detected) (Homo sapiens, UniProt P39748); details: protein FEN1; U3A, 10 μM, 2 h
# Chain of proteins of U3A human fibrosarcoma cells (4462 proteins detected) (Homo sapiens, UniProt P39748) (P39748 whole entry): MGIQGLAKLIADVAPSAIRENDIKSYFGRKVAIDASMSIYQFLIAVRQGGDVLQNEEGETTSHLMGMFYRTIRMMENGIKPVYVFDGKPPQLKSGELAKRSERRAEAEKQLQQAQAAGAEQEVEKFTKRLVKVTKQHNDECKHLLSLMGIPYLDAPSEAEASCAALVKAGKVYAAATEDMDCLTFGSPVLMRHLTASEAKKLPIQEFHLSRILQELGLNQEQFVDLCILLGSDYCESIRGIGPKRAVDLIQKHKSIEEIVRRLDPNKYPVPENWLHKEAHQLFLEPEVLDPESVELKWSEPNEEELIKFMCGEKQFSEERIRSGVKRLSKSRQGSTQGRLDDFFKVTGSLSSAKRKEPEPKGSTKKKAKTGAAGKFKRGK
# [10] = molecular target: proteins of U3A human fibrosarcoma cells (4462 proteins detected) (Homo sapiens, UniProt P41229); details: protein KDM5C; U3A cells
# [11] = molecular target: proteins of U3A human fibrosarcoma cells (4462 proteins detected) (Homo sapiens, UniProt P48637); details: protein GSS; soluble abundance after heat, U3A cells
# Chain of proteins of U3A human fibrosarcoma cells (4462 proteins detected) (Homo sapiens, UniProt P48637) (P48637 whole entry): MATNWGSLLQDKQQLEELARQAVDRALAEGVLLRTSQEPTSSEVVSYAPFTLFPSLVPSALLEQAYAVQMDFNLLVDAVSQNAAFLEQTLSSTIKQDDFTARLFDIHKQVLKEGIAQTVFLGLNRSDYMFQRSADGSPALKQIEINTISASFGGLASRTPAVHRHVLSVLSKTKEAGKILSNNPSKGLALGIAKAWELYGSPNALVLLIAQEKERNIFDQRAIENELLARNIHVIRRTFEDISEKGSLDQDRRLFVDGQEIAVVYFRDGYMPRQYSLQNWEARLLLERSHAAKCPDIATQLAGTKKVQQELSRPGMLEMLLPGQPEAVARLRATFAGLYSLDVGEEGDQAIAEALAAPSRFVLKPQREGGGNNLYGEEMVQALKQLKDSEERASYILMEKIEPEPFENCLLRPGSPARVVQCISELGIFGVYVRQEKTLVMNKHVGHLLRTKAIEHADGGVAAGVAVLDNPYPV
# [12] = molecular target: proteins of U3A human fibrosarcoma cells (4462 proteins detected) (Homo sapiens, UniProt P49321); details: protein NASP, U3A cells
# [13] = molecular target: proteins of U3A human fibrosarcoma cells (4462 proteins detected) (Homo sapiens, UniProt P50542); details: protein PEX5, U3A cells
# [14] = molecular target: proteins of U3A human fibrosarcoma cells (4462 proteins detected) (Homo sapiens, UniProt P62847); details: protein RPS24, U3A cells
# [15] = molecular target: proteins of U3A human fibrosarcoma cells (4462 proteins detected) (Homo sapiens, UniProt Q13601); details: protein KRR1; soluble abundance after heat, U3A cells
# [16] = molecular target: proteins of U3A human fibrosarcoma cells (4462 proteins detected) (Homo sapiens, UniProt Q14974); details: protein KPNB1; soluble abundance after heat, U3A cells
# [17] = molecular target: proteins of U3A human fibrosarcoma cells (4462 proteins detected) (Homo sapiens, UniProt Q15084); details: protein PDIA6; U3A cells
# [18] = molecular target: proteins of U3A human fibrosarcoma cells (4462 proteins detected) (Homo sapiens, UniProt Q16637); details: protein SMN1; SMN2; U3A, 10 μM, 2 h
# Chain of proteins of U3A human fibrosarcoma cells (4462 proteins detected) (Homo sapiens, UniProt Q16637) (Q16637 whole entry): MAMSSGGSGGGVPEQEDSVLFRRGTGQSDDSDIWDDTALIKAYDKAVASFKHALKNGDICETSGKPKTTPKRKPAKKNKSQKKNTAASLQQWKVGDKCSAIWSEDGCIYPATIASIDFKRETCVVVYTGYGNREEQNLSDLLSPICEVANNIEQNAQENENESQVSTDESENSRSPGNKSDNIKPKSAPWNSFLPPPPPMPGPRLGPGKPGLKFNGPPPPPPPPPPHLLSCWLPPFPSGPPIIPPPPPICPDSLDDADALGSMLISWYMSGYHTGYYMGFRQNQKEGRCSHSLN
# [19] = molecular target: proteins of U3A human fibrosarcoma cells (4462 proteins detected) (Homo sapiens, UniProt Q6P3W7); details: protein SCYL2, U3A cells
# [20] = molecular target: proteins of U3A human fibrosarcoma cells (4462 proteins detected) (Homo sapiens, UniProt Q6QNY1); details: protein BLOC1S2, U3A cells
# Chain of proteins of U3A human fibrosarcoma cells (4462 proteins detected) (Homo sapiens, UniProt Q6QNY1) (Q6QNY1 whole entry): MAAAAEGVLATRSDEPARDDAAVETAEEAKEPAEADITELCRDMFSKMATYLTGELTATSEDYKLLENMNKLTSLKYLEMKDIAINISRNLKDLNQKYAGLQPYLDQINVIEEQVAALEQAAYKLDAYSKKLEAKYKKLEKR
# [21] = molecular target: proteins of U3A human fibrosarcoma cells (4462 proteins detected) (Homo sapiens, UniProt Q8TEP8); details: protein CEP192; U3A, 10 μM, 2 h
# [22] = molecular target: proteins of U3A human fibrosarcoma cells (4462 proteins detected) (Homo sapiens, UniProt Q93008); details: protein USP9X; soluble abundance after heat, U3A cells
# [23] = molecular target: proteins of U3A human fibrosarcoma cells (4462 proteins detected) (Homo sapiens, UniProt Q9H832); details: protein UBE2Z; U3A, 10 μM, 2 h
# Chain of proteins of U3A human fibrosarcoma cells (4462 proteins detected) (Homo sapiens, UniProt Q9H832) (Q9H832 whole entry): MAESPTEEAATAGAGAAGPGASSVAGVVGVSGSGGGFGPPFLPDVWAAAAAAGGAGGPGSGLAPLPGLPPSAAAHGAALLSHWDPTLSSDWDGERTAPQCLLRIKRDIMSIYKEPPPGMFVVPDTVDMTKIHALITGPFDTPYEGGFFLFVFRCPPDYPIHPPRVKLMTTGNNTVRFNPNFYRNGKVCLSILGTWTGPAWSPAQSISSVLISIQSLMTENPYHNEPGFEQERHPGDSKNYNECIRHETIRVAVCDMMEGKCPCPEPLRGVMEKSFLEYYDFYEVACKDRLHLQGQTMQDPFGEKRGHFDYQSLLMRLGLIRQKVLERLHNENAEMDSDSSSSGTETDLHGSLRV
# [24] = molecular target: proteins of U3A human fibrosarcoma cells (4462 proteins detected) (Homo sapiens, UniProt Q9HCJ0); details: protein TNRC6C, U3A cells
# Chain of proteins of U3A human fibrosarcoma cells (4462 proteins detected) (Homo sapiens, UniProt Q9HCJ0) (Q9HCJ0 whole entry): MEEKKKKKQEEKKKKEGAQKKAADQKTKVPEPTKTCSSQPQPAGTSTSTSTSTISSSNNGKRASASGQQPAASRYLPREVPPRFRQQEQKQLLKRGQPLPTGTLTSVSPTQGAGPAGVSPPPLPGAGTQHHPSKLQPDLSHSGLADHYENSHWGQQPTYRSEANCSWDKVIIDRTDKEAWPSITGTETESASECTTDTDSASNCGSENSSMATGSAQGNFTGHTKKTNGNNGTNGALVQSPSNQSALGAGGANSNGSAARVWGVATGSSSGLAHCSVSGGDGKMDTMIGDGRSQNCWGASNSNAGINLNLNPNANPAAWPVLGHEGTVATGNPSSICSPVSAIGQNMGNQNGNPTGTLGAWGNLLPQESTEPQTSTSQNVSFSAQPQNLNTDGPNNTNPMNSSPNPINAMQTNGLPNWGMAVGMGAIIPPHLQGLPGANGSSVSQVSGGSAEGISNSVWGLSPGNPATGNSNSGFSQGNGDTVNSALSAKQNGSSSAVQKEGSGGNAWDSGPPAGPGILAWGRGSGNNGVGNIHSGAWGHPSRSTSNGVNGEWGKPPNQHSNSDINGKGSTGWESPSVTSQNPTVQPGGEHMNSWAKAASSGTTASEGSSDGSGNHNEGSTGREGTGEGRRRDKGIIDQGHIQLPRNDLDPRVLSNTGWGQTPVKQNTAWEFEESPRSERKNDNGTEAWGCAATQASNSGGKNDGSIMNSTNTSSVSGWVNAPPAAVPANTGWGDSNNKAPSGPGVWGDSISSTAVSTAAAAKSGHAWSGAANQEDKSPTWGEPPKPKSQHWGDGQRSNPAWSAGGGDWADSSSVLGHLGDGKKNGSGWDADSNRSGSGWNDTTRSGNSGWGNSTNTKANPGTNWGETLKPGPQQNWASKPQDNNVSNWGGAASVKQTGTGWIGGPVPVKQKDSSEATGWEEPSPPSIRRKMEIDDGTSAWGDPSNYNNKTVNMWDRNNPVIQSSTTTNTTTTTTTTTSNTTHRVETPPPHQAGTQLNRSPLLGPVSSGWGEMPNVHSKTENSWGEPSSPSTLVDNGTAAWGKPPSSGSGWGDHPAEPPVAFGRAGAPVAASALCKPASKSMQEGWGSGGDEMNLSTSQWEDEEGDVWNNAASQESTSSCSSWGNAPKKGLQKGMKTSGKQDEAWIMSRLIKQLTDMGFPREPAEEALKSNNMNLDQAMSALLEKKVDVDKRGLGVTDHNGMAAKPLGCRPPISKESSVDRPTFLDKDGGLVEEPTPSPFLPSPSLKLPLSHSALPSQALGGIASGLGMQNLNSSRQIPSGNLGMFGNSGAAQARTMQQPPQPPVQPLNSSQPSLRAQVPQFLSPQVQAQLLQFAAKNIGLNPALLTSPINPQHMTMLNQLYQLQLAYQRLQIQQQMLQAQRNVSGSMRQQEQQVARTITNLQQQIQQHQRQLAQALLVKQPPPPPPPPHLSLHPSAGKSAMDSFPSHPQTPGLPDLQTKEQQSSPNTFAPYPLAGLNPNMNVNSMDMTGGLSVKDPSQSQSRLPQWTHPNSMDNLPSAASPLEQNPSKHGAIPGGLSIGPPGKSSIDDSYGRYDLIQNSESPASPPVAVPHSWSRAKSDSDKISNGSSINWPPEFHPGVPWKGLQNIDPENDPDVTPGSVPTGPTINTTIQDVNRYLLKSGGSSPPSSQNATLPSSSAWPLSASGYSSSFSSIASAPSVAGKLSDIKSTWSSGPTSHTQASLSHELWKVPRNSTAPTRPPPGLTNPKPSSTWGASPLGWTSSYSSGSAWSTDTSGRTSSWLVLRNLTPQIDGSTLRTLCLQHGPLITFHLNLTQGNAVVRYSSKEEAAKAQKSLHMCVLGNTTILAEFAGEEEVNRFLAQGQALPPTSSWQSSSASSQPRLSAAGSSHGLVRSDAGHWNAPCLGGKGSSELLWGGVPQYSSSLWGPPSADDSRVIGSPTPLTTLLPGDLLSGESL
# [25] = molecular target: proteins of U3A human fibrosarcoma cells (4462 proteins detected) (Homo sapiens, UniProt Q9NSA3); details: protein CTNNBIP1; U3A, 10 μM, 2 h
# [26] = molecular target: proteins of U3A human fibrosarcoma cells (4462 proteins detected) (Homo sapiens, UniProt Q9NXV6); details: protein CDKN2AIP; U3A cells
# [27] = molecular target: proteins of U3A human fibrosarcoma cells (4462 proteins detected) (Homo sapiens, UniProt Q9NXW2); details: protein DNAJB12; soluble abundance after heat, U3A cells
# [28] = molecular target: proteins of U3A human fibrosarcoma cells (4462 proteins detected) (Homo sapiens, UniProt Q9UIG0); details: protein BAZ1B; U3A cells
# [29] = molecular target: proteins of U3A human fibrosarcoma cells (4462 proteins detected) (Homo sapiens, UniProt Q9Y5P4); details: protein COL4A3BP; soluble abundance after heat, U3A cells
# Chain of proteins of U3A human fibrosarcoma cells (4462 proteins detected) (Homo sapiens, UniProt O00232) (O00232 whole entry): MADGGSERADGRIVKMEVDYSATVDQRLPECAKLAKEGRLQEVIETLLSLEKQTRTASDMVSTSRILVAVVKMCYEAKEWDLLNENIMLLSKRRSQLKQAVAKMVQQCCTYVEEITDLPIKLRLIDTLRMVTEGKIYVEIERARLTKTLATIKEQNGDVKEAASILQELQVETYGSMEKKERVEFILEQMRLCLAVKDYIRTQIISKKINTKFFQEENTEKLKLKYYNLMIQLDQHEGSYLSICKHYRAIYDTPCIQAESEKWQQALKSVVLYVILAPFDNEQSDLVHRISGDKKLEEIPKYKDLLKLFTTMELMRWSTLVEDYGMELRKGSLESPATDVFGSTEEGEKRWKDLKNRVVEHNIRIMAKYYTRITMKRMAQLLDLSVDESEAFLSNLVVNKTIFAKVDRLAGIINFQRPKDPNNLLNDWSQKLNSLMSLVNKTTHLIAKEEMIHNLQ
smiles,measurement,setting,value
CCc1nc(N)nc(N)c1-c1ccc(Cl)cc1 [pyrimethamine],Log2 (PYR/DMSO),[1],0.18
same,Log2 (PYR/DMSO),[2],0.14
same,"Log2 (PYR/DMSO), PHF14",[3],-0.15
same,Log2 (PYR/DMSO),[4],0.18
same,Log2 (PYR/DMSO),[5],-0.04
same,Log2 (PYR/DMSO),[6],-0.04
same,Log2 (PYR/DMSO),[7],-0.05
same,Log2 (PYR/DMSO),[8],0.15
same,"Log2 (PYR/DMSO), FEN1",[9],0.23
same,Log2 (PYR/DMSO),[10],0.18
same,Log2 (PYR/DMSO),[11],0.14
same,Log2 (PYR/DMSO),[12],-0.04
same,Log2 (PYR/DMSO),[13],-0.03
same,Log2 (PYR/DMSO),[14],-0.04
same,Log2 (PYR/DMSO),[15],0.14
same,Log2 (PYR/DMSO),[16],0.14
same,Log2 (PYR/DMSO),[17],0.16
same,"Log2 (PYR/DMSO), SMN1; SMN2",[18],-0.18
same,Log2 (PYR/DMSO),[19],-0.04
same,Log2 (PYR/DMSO),[20],-0.04
same,"Log2 (PYR/DMSO), CEP192",[21],-0.22
same,Log2 (PYR/DMSO),[22],0.14
same,"Log2 (PYR/DMSO), UBE2Z",[23],0.25
same,Log2 (PYR/DMSO),[24],-0.04
same,"Log2 (PYR/DMSO), CTNNBIP1",[25],-0.15
same,Log2 (PYR/DMSO),[26],0.16
same,Log2 (PYR/DMSO),[27],0.15
same,Log2 (PYR/DMSO),[28],0.21
same,Log2 (PYR/DMSO),[29],0.13
